In patent publication US20090111836A1, “Angular Pyranocoumarins, Process for Preparation and Uses Thereof” (CITY UNIVERSITY OF HONG KONG, priority 2007, published 2009):
Several values for one entry are separate records, joined by “and”; a condition that tells them apart may be missing. Equal values may be shown once. Entries after “also recorded” stand apart in the source; their conditions may differ.

Assays:
K562-DR cells = assay: MTT growth inhibition assay, K562-DR; type: cell-based, human; conditions: IC50 K562-DR / IC50 K562
Experimental: K562, K562-DR, HepG2, HepG2-DR were cultured in RPMI-1640 medium containing 10% fetal bovine serum and 100 U/mL, antibiotics. […] Drug test: […] New calorimetric cytotoxicity assay for anticancer-drug screening. […] Mosmann T. Rapid colorimetric assay for cellular growth and survival: application to proliferation and cytotoxicity assays. […] Gerlier D, Thomasset N. […] Each growth inhibition experiment must be repeated three times and results are expressed as mean±standard deviation (SD). Solvents and media were included as blank control. In MTT assay, cells are inoculated at 5000 cells/well and are incubated overnight. Drug treatment lasts for 68 h. MTT (5 mg/ml in PBS) is added to each well (1:10 dilution). […] Viable cell number is estimated by correlating to OD at 570 nm.

KB V1 cells [1] = assay: SRB growth inhibition assay, KB V1; type: cell-based, human; conditions: IC50 KB V1 / IC50 KB-3-1
HepG2-DR cells = assay: Reversal of multidrug resistance (fold decrease of anticancer drug IC50), HepG2-DR; type: cell-based, human
Experimental: (§1) Cells and cell culture: cell lines used in the experiments are human hepatoma cell line (HepG2), human leukemia cell line (K562), human epidermoid carcinoma cell line (KB-3-1) and their multidrug resistant sublines HepG2-DR, K562-DR. and KB V1. The culture conditions for all cells are following: at 37° C. and 5% CO2), KB-3-1 and KBV1 were cultured in MEM medium containing 10% fetal bovine serum and 100 U/mL antibiotics; K562, K562-DR, HepG2, HepG2-DR were cultured in RPMI-1640 medium containing 10% fetal bovine serum and 100 U/mL, antibiotics. For maintaining the phenotypic characteristics of multidrug resistance, 1.2 μM and 0.1 μM doxorubicin were respectively added into the mediums of HepG2-DR and K562-DR; 200 ng/mL vinblastine was added into the medium of KBV1. Drug resistant cells were grown in drug free medium for at least 7 days before test.
(§2) Each growth inhibition experiment must be repeated three times and results are expressed as mean±standard deviation (SD). Solvents and media were included as blank control.
(§3) In SRB assay, cells are inoculated at 5000 cells/well in a 96-well microplate and incubated overnight to let cells adhere. Drug treatment lasts for 72 hours and cells are fixed for 1 hour at 4° C. with 50 μl ice-cold 15% trichloroacetic acid and washed with triple-distilled water 5 times. Cellular protein is stained by adding 50 μl of 0.4% SRB in 1% acetic acid for 10 minutes, rinsed with 1% acetic acid 5 times and air-dried. The protein-bound dye is dissolved in 100 μl per well of 10 mM Tris base (pH 10.5). The color intensity of SRB, which positively correlate to cell number in preliminary experiments, is estimated at OD 515 nm.
(§4) 1. Materials and methods: the same with I.
(§5) To evaluate the multidrug resistance reversing ability of (±)-Praeruptorin A derivatives, IC50 values of anticancer drugs in the presence and absence of cis-DMDCK, cis-DMDBK, trans-DMDCK, or trans-DMDBK at certain concentration were determined in HepG2-DR, K562-DR and KB V1 cells. The fold decrease of IC50 value of an anticancer drug in certain cell line achieved by a test compound is calculated (fold decrease=IC50 of an anti-tumor drug alone/IC50 of the anti-tumor drug in combination with the test compound) and is used for evaluating the ability of the test compound to reduce drug resistance. The larger the fold decrease value is, the stronger its ability to reverse drug resistance is. The results were average values of three repetitive tests. Verapamil (P-glycoprotein modulator) is the positive control.

P-gp [2] = assay: Immunoblotting analysis of P-gp expression, HepG2-DR; type: cell-based, human; conditions: 4 μM, 72 hours
Experimental: Immunoblotting analysis of P-gp expression: cells were treated with 4 μM of cis-DMDCK, 4 μM of cis-DMDBK, 4 μM of trans-DMDCK, or 4 μM of trans-DMDBK for 72 hours. Treated cells were collected and mixed well in ice-cold lysis buffer (50 mM Tris pH7.4, 100 mM NaCl, 2 mM EDTA, 1% sodium deoxycholate, 0.1% SDS, 1% triton X-100, 2 mM PMSF, 1% aprotinin) for 30 minutes and then centrifuged to get the total protein. Protein concentration was determined using Bradford assay. In this experiment, 50 μg total protein was separated by 8% SDS-PAGE and electro-transferred to nitrocellulose membranes. The membrane was blocked by 5% skim milk/0.1% Tween-20/TBS (10 mM Tris pH7.5, 100 mM NaCl), and then incubated with anti-P-pg antibody for 1 hour, followed by horseradish-peroxidase-conjugated secondary antibody for another 1 hour. Protein bands were detected by the ECL method.

KB V1 cells [3] = assay: Reversal of multidrug resistance (fold decrease of anticancer drug IC50), KB V1; type: cell-based, human
Experimental: as §1, §2, §3, §4, §5

P-gp [4] = biological target: P-gp (Homo sapiens, UniProt P08183); assay: Hoechst 33342 efflux assay, HepG2-DR; type: cell-based; design: KB V1, HepG2-DR and K562-DR cell expressed P-gp at high level when compared with parental drug sensitive cells thereof; endogenous in cells; host or cells: HepG2-DR (doxorubicin-maintained multidrug resistant subline of HepG2)
Experimental: Relative amount of intracellular H33342 (%)=100×(FS−F0)/F0
(Fs: cellular fluorescence intensity of H33342 in the presence of a testing drug; F0: cellular fluorescence intensity of H33342 in the absence of any P-gp modulator).
1.4 Hoechst 33342 transport test: HepG2-DR Cells (5×10^4 cells in 100 μL, medium per well) were seeded in 96-well plate and incubated overnight to permit cell attachment. The medium was replaced with fresh medium containing 20 μg/mL Hoechst 33342 and cells were incubated at 37° C. for 1 hour. Cells were then washed with 100 μL ice-cold PBS twice. New medium containing the test compound of various concentrations was added and cells were further incubated at 37° C. for 1 hour. Cells were washed with ice-cold PBS twice and cellular fluorescence intensity was measured at λex=365 nm (λem=460 nm) by a BMG FLUOstar OPTIMA Microplate Reader. Inhibitory effect of the test compound on Hoechst 33342 efflux was expressed as the percentage increase of retained Hoechst 33342 in cells.

Sequence of P-gp (Homo sapiens, UniProt P08183) (P08183 whole entry): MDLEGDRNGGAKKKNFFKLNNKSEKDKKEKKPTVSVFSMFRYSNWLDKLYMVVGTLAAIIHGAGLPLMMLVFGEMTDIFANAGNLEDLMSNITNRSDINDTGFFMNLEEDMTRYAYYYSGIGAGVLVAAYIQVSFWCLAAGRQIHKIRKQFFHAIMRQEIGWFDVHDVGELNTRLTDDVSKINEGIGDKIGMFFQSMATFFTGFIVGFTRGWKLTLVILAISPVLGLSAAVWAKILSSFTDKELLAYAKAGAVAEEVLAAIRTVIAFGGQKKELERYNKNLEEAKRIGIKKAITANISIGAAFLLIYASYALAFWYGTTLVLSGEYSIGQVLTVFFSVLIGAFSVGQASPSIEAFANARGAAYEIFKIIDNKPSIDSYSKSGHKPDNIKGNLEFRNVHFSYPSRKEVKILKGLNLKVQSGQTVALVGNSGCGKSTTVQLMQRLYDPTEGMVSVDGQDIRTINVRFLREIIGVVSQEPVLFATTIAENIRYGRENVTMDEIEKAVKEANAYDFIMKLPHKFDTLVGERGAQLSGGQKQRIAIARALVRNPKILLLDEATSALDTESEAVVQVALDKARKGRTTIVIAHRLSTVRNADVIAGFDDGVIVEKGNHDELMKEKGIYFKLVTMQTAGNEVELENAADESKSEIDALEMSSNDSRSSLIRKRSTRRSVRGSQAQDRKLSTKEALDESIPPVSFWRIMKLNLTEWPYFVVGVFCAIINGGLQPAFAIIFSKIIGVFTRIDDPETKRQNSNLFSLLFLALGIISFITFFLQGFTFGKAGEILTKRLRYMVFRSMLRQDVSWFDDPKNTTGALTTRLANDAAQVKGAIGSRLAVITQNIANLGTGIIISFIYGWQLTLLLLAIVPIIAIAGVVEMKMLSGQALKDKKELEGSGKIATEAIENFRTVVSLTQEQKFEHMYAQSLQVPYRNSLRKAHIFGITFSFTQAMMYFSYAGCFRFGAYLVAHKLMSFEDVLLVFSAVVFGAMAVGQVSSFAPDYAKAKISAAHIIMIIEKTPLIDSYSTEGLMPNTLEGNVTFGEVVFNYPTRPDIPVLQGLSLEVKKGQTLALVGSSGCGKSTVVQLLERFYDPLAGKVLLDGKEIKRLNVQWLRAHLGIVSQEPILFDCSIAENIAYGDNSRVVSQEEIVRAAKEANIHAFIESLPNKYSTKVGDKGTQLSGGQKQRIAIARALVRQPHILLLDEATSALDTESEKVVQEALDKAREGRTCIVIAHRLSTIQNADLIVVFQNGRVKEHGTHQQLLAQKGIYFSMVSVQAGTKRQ

Compound | Resistant ratio (K562-DR cells) | Resistant ratio (KB V1 cells [1]) | Reversing parameter: fold decrease of IC50 of Doxorubicin (HepG2-DR cells; 2 μM test compound) | Reversing parameter: fold decrease of IC50 of Puromycin (HepG2-DR cells; 2 μM test compound) | Reversing parameter: fold decrease of IC50 of Vinblastine (HepG2-DR cells; 2 μM test compound) | Reversing parameter: fold decrease of IC50 of Doxorubicin (HepG2-DR cells; 4 μM test compound) | Reversing parameter: fold decrease of IC50 of Puromycin (HepG2-DR cells; 4 μM test compound) | Reversing parameter: fold decrease of IC50 of Vinblastine (HepG2-DR cells; 4 μM test compound) | Change in P-gp (MDR1) expression level (P-gp [2]) | Reversing parameter: fold decrease of IC50, verapamil (KB V1 cells [3]; KB V1, 4 μM test compound) [fold] | Reversing parameter: fold decrease of IC50 of Doxorubicin (KB V1 cells [3]; KB V1, 4 μM test compound) [fold] | Reversing parameter: fold decrease of IC50 of Puromycin (KB V1 cells [3]; KB V1, 4 μM test compound) [fold] | Reversing parameter: fold decrease of IC50 of Vinblastine (KB V1 cells [3]; KB V1, 4 μM test compound) [fold] | Highest increase of cellular Hoechst 33342 fluorescence (P-gp [4]; 20 μM) | Reversing parameter: fold decrease of IC50 of Doxorubicin (HepG2-DR cells; 1 μM test compound) | Reversing parameter: fold decrease of IC50 of Puromycin (HepG2-DR cells; 1 μM test compound) | Reversing parameter: fold decrease of IC50 of Vinblastine (HepG2-DR cells; 1 μM test compound) | Reversing parameter: fold decrease of IC50, verapamil (KB V1 cells [3]; KB V1, 2 μM test compound) [fold] | Reversing parameter: fold decrease of IC50 of Doxorubicin (KB V1 cells [3]; KB V1, 2 μM test compound) [fold] | Reversing parameter: fold decrease of IC50 of Puromycin (KB V1 cells [3]; KB V1, 2 μM test compound) [fold] | further results
COc1ccc(C(=O)O[C@@H]2[C@@H](OC(=O)c3ccc(OC)c(OC)c3)c3c(ccc4ccc(=O)oc34)OC2(C)C)cc1OC (racemic) [trans-DMDBK, (±)-3′-O,4′-O-bis(3,4-dimethoxybenzoyl)-trans-khellactone] | 1.50 | 0.53 | 3.8 ± 1.6 fold | 4.6 ± 1.4 fold | 1.5 ± 0.3 fold | 58.2 ± 17.2 fold | 28.5 ± 0.2 fold | 19.3 ± 10.4 fold | no detectable alteration; also recorded: not observed | 2.2 ± 0.4 | 2.7 ± 0.9 | 8.4 ± 4.2 | 1.4 ± 0.2 | about 150% |  |  |  |  |  |  | 
COc1ccc(/C=C/C(=O)O[C@@H]2[C@@H](OC(=O)/C=C/c3ccc(OC)c(OC)c3)c3c(ccc4ccc(=O)oc34)OC2(C)C)cc1OC (racemic) [trans-DMDCK, (±)-3′-O,4′-O-bis(3,4-dimethoxycinnamoyl)-trans-khellactone] | 1.42 | 0.47 | 8.0 ± 0.6 fold | 5.6 ± 0.6 fold | 1.9 ± 0.0 fold | 59.4 ± 18.5 fold | 26.6 ± 6.4 fold | 13.9 ± 5.8 fold | no detectable alteration; also recorded: not observed | 6.0 ± 3.1 |  | 15.3 ± 2.5 |  | about 150% |  |  |  |  |  |  | 
COc1ccc(/C=C/C(=O)O[C@@H]2c3c(ccc4ccc(=O)oc34)OC(C)(C)[C@@H]2OC(=O)/C=C/c2ccc(OC)c(OC)c2)cc1OC (racemic) [cis-DMDCK, (±)-3′-O,4′-O-bis(3,4-dimethoxycinnamoyl)-cis-khellactone] | 1.29 | 0.52 | 107 fold and 107.9 ± 51.9 fold | 111 fold and 111.1 ± 38.0 fold | 105 fold and 105.7 ± 21.2 fold | 160 fold and 160.6 ± 12.6 fold | 140 fold and 140.9 ± 65.1 fold | 130 fold and 129.9 ± 35.5 fold | no detectable alteration; also recorded: not observed | 499.8 ± 202.8 | 50.0 ± 19.1 | 131.0 ± 7.1 | 331.2 ± 155.4 |  | 22 fold and 22.5 ± 9.1 fold | 29 fold and 29.5 ± 13.0 fold | 45 fold and 45.7 ± 10.3 fold | 128.2 ± 53.8 | 19.1 ± 11.1 | 61.4 ± 31.3 | Reversing parameter: fold decrease of IC50, verapamil (KB V1 cells [3]; KB V1, 1 μM test compound): 9.0 ± 9.7 fold; Reversing parameter: fold decrease of IC50 of Doxorubicin (KB V1 cells [3]; KB V1, 1 μM test compound): 8.9 ± 2.3 fold; Reversing parameter: fold decrease of IC50 of Puromycin (KB V1 cells [3]; KB V1, 1 μM test compound): 37.0 ± 14.4 fold; Reversing parameter: fold decrease of IC50 of Vinblastine (KB V1 cells [3]; KB V1, 1 μM test compound): 2.3 ± 0.8 fold; Reversing parameter: fold decrease of IC50 of Vinblastine (KB V1 cells [3]; KB V1, 2 μM test compound): 115.0 ± 17.6 fold; Highest increase of cellular Hoechst 33342 fluorescence (P-gp [4]; 5 μM): 200%
COc1ccc(C(=O)O[C@@H]2c3c(ccc4ccc(=O)oc34)OC(C)(C)[C@@H]2OC(=O)c2ccc(OC)c(OC)c2)cc1OC (racemic) [cis-DMDBK, (±)-3′-O,4′-O-bis(3,4-dimethoxybenzoyl)-cis-khellactone] | 0.91 | 0.46 | 33.5 ± 7.5 fold | 15.4 ± 4.6 fold | 12.4 ± 6.1 fold | 117.1 ± 13.8 fold | 74.6 ± 21.2 fold | 82.1 ± 13.1 fold | no detectable alteration; also recorded: not observed | 83.3 ± 35.3 | 16.1 ± 9.5 | 36.8 ± 16.6 | 51.6 ± 11.0 |  | 6.2 ± 0.7 fold | 4.6 ± 1.3 fold | 4.8 ± 4.1 fold | 6.8 ± 2.9 | 5.6 ± 2.4 | 15.4 ± 3.3 | Reduction of drug resistance to the four anti-tumor drugs (HepG2-DR cells; 4 μM test compound, range over vinblastine, doxorubicin, puromycin, paclitaxel): 62-117 times; Reversing parameter: fold decrease of IC50 of Vinblastine (KB V1 cells [3]; KB V1, 2 μM test compound): 3.5 ± 1.4 fold; Highest increase of cellular Hoechst 33342 fluorescence (P-gp [4]; 10 μM): 200%
